In ChEMBL document CHEMBL1201862, “PubChem BioAssay data set” (2004):
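Test compounds were applied to cells in 96-well plates for 48 hours at 5 doses. GI50 is the concentration that inhibits growth by half.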 Calls of active or inactive are those of the source. No stated cut-off is given here; in the data, active = GI50 up to about 1.1 µM and inactive = higher.

What was measured:
Assay in all cases: NCI-60 cell line screen, 48 h
COLO 205 = system: COLO 205
LOX IMVI = system: LOX IMVI
SK-MEL-2 = system: SK-MEL-2
SF-295 = system: SF-295
SK-OV-3 = system: SK-OV-3
CCRF-CEM = system: CCRF-CEM
786-0 = system: 786-0
U-251 = system: U-251
A549 = system: A549
SNB-19 = system: SNB-19
UO-31 = system: UO-31
OVCAR-8 = system: OVCAR-8
SF-539 = system: SF-539
NCI-H226 = system: NCI-H226
MDA-MB-231 = system: MDA-MB-231
HCC 2998 = system: HCC 2998
EKVX = system: EKVX
HOP-92 = system: HOP-92
NCI-H522 = system: NCI-H522
SN12C = system: SN12C
MDA-N = system: MDA-N
SF-268 = system: SF-268
TK-10 = system: TK-10
Hs-578T = system: Hs-578T
SK-MEL-5 = system: SK-MEL-5
SNB-75 = system: SNB-75
IGROV-1 = system: IGROV-1
HCT-15 = system: HCT-15
A498 = system: A498
UACC-257 = system: UACC-257
MCF7 = system: MCF7
HCT-116 = system: HCT-116
OVCAR-4 = system: OVCAR-4
HT-29 = system: HT-29
OVCAR-3 = system: OVCAR-3
NCI-H23 = system: NCI-H23
MDA-MB-435 = system: MDA-MB-435
CAKI-1 = system: CAKI-1
UACC-62 = system: UACC-62
DU-145 = system: DU-145
PC-3 = system: PC-3
Malme-3M = system: Malme-3M
RXF 393 = system: RXF 393
M14 = system: M14
K562 = system: K562
HOP-62 = system: HOP-62
SK-MEL-28 = system: SK-MEL-28
NCI-H460 = system: NCI-H460
OVCAR-5 = system: OVCAR-5
ACHN = system: ACHN
SW-620 = system: SW-620
BT-549 = system: BT-549
HL-60 = system: HL-60
NCI/ADR-RES = system: NCI/ADR-RES
KM12 = system: KM12
MOLT-4 = system: MOLT-4

## Cc1ccc(-n2cc(-c3ccc(Cl)cc3)c3c(=N)n(N)cnc32)cc1
COLO 205
  GI50: 8.2 µM (inactive)
LOX IMVI
  GI50: 14.7 µM (inactive)
SK-MEL-2
  GI50: 13.6 µM (inactive)
SF-295
  GI50: 15.4 µM (inactive)
SK-OV-3
  GI50: 17.4 µM (inactive)
CCRF-CEM
  GI50: 11.3 µM (inactive)
786-0
  GI50: 11.9 µM (inactive)
U-251
  GI50: 10.5 µM (inactive)
A549
  GI50: 15.1 µM (inactive)
SNB-19
  GI50: 11.8 µM (inactive)
UO-31
  GI50: 11.7 µM (inactive)
OVCAR-8
  GI50: 14.8 µM (inactive)
SF-539
  GI50: 13.4 µM (inactive)
NCI-H226
  GI50: 21 µM (inactive)
MDA-MB-231
  GI50: 12.6 µM (inactive)
HCC 2998
  GI50: 6.11 µM (inactive)
EKVX
  GI50: 16.4 µM (inactive)
HOP-92
  GI50: 9.95 µM (inactive)
NCI-H522
  GI50: 14.5 µM (inactive)
SN12C
  GI50: 16 µM (inactive)
MDA-N
  GI50: 11.5 µM (inactive)
SF-268
  GI50: 12.7 µM (inactive)
TK-10
  GI50: 15.3 µM (inactive)
Hs-578T
  GI50: 3.71 µM (inactive)
SK-MEL-5
  GI50: 7.43 µM (inactive)
SNB-75
  GI50: 12.6 µM (inactive)
IGROV-1
  GI50: 12 µM (inactive)
HCT-15
  GI50: 15.6 µM
A498
  GI50: 15.9 µM (inactive)
UACC-257
  GI50: 9.93 µM (inactive)
MCF7
  GI50: 11 µM (inactive)
HCT-116
  GI50: 7.8 µM (inactive)
OVCAR-4
  GI50: 10.5 µM (inactive)
HT-29
  GI50: 8.24 µM (inactive)
OVCAR-3
  GI50: 13.5 µM (inactive)
NCI-H23
  GI50: 16.1 µM (inactive)
MDA-MB-435
  GI50: 11.1 µM (inactive)
CAKI-1
  GI50: 18.5 µM (inactive)
UACC-62
  GI50: 13.2 µM (inactive)
DU-145
  GI50: 17.5 µM (inactive)
PC-3
  GI50: 6.41 µM (inactive)
Malme-3M
  GI50: 13.2 µM (inactive)
RXF 393
  GI50: 4.69 µM (inactive)
M14
  GI50: 5.75 µM (inactive)
K562
  GI50: 6.46 µM (inactive)
HOP-62
  GI50: 14.2 µM (inactive)
SK-MEL-28
  GI50: 13.8 µM (inactive)
NCI-H460
  GI50: 10.3 µM (inactive)
OVCAR-5
  GI50: 14.7 µM (inactive)
ACHN
  GI50: 16.2 µM (inactive)
SW-620
  GI50: 12.4 µM (inactive)
BT-549
  GI50: 16.9 µM (inactive)
HL-60
  GI50: 7.83 µM (inactive)
NCI/ADR-RES
  GI50: 13.1 µM (inactive)

## COc1ccc(N2C(=O)C(C#N)=C(SC)C(C#N)C2=O)cc1 (centres undefined)
COLO 205
  GI50: > 100 µM (inactive)
LOX IMVI
  GI50: > 100 µM (inactive)
SK-MEL-2
  GI50: > 100 µM (inactive)
SF-295
  GI50: > 100 µM (inactive)
SK-OV-3
  GI50: > 100 µM (inactive)
CCRF-CEM
  GI50: > 100 µM (inactive)
786-0
  GI50: > 100 µM (inactive)
U-251
  GI50: > 100 µM (inactive)
A549
  GI50: > 100 µM (inactive)
SNB-19
  GI50: 66.5 µM (inactive)
OVCAR-8
  GI50: > 100 µM (inactive)
SF-539
  GI50: > 100 µM (inactive)
NCI-H226
  GI50: > 100 µM (inactive)
MDA-MB-231
  GI50: > 100 µM (inactive)
HCC 2998
  GI50: > 100 µM (inactive)
EKVX
  GI50: > 100 µM (inactive)
HOP-92
  GI50: 46.6 µM (inactive)
NCI-H522
  GI50: > 100 µM (inactive)
SN12C
  GI50: > 100 µM (inactive)
MDA-N
  GI50: > 100 µM (inactive)
SF-268
  GI50: > 100 µM (inactive)
TK-10
  GI50: > 100 µM (inactive)
Hs-578T
  GI50: 22.8 µM (inactive)
SK-MEL-5
  GI50: > 100 µM (inactive)
SNB-75
  GI50: 47.1 µM (inactive)
IGROV-1
  GI50: > 100 µM (inactive)
KM12
  GI50: > 100 µM (inactive)
HCT-15
  GI50: > 100 µM
A498
  GI50: > 100 µM (inactive)
MOLT-4
  GI50: > 100 µM (inactive)
UACC-257
  GI50: > 100 µM (inactive)
MCF7
  GI50: > 100 µM (inactive)
HCT-116
  GI50: > 100 µM (inactive)
OVCAR-4
  GI50: > 100 µM (inactive)
HT-29
  GI50: > 100 µM (inactive)
MDA-MB-435
  GI50: > 100 µM (inactive)
CAKI-1
  GI50: > 100 µM (inactive)
UACC-62
  GI50: > 100 µM (inactive)
PC-3
  GI50: > 100 µM (inactive)
Malme-3M
  GI50: > 100 µM (inactive)
RXF 393
  GI50: > 100 µM (inactive)
M14
  GI50: > 100 µM (inactive)
K562
  GI50: > 100 µM (inactive)
HOP-62
  GI50: > 100 µM (inactive)
NCI-H460
  GI50: > 100 µM (inactive)
OVCAR-5
  GI50: > 100 µM (inactive)
ACHN
  GI50: > 100 µM (inactive)
SW-620
  GI50: > 100 µM (inactive)
BT-549
  GI50: > 100 µM (inactive)
NCI/ADR-RES
  GI50: > 100 µM (inactive)
